# Literature values as cited in patent publication US20090004173A1, “Diagnosis and Treatment of Drug Resistant Leukemia” (priority 2004, published 2009).
# Where two headings read alike, the source gives them in different places.
# B1: L-asparaginase (protein, UniProt P00805 23-348, looked up)
# L-asparaginase 2: LPNITILATGGTIAGGGDSATKSNYTVGKVGVENLVNAVPQLKDIANVKGEQVVNIGSQDMNDNVWLTLAKKINTDCDKTDGFVITHGTDTMEETAYFLDLTVKCDKPVVMVGAMRPSTSMSADGPFNLYNAVVTAADKASANRGVLVVMNDTVLDGRDVTKTNTTDVATFKSVNYGPLGYIHNGKIDYQRTPARKHTSDTPFDVSKLNELPKVGIVYNYANASDLPAKALVDAGYDGIVSAGVGNGNLYKSVFDTLATAAKTGTAVVRSSRVPTGATTQDAEVDDAKYGFVASGTLNPQKARVLLQLALTQTKDPQQIQQIFNQY
# Experiments:
# [1] = tested on: non-leukemic cell lines; settings: Niitsu et al. (2000)
# [2] = tested on: leukemia cells; settings: for LC50 values for classification of ALL: Resistant / LC50 values for classification of ALL: Sensitive: LC50 by MTT, cut-off previously associated with treatment outcome
# [3] = classification cut-off: cell is resistant if LC-50 is equal to or greater than the value
Molecule,sensitization to the cytotoxicity of daunorubicin and doxorubicin [1],LC50 values for classification of ALL: Resistant [2],LC50 values for classification of ALL: Sensitive [2],"LC-50 values for classifying leukemia cells as drug-resistant [2, 3]",LC-50 values for classifying leukemia cells as drug-resistant [2]
CCCC(=O)OCOC(=O)C(C)(C)C [AN-9],sensitize non-leukemic cell lines to the cytotoxicity of daunorubicin and doxorubicin,,,,
"COc1cccc2c1C(=O)c1c(O)c3c(c(O)c1C2=O)C[C@@](O)(C(C)=O)C[C@@H]3O[C@H]1C[C@H](N)[C@H](O)[C@H](C)O1 [Daunorubicin, daunorubicin]",,≧0.114 μg/ml,≦0.075 μg/ml,≧0.114 μg/ml,
"C[C@]12C=CC(=O)C=C1CC[C@@H]1[C@@H]2[C@@H](O)C[C@@]2(C)[C@H]1CC[C@]2(O)C(=O)CO [Prednisolone, prednisolone]",,≧150 μg/ml,≦0.100 μg/ml,≧150 μg/ml,
"CC[C@]1(O)C[C@H]2CN(CCc3c([nH]c4ccccc34)[C@@](C(=O)OC)(c3cc4c(cc3OC)N(C=O)[C@H]3[C@@](O)(C(=O)OC)[C@H](OC(C)=O)[C@]5(CC)C=CCN6CC[C@]43[C@@H]65)C2)C1 [Vincristine, vincristine]",,≧1.758 μg/ml,≦0.391 μg/ml,≧1.758 μg/ml,
B1,,≧0.912 IU/ml,≦0.033 IU/ml,,≧0.912 IU/ml
